Experimental data from US10526287B2, “LSD1 inhibitors and uses thereof” (Constellation Pharmaceuticals, Inc., priority 2015, dated 2020).
Structures can show the parent of a compound that is named as a salt. Where two headings read alike, the source gives them in different places.

Biological target: LSD1 (Homo sapiens, UniProt O60341)
Experiment: Biochemical assay for LSD1 activity (LSD1 demethylase TR-FRET)
Settings: biotinylated H3K4me1 peptide, 50 minutes at room temperature, TR-FRET, read-out: LSD1_Pep_TR-FRET_1.0 (IC50 T50)

| Structure (SMILES) | IC50 (Table 6) [nM] | IC50 (Table 7) [nM] | other results |
| --- | --- | --- | --- |
| CC/C(=C\c1ccccc1)[C@@H]1C[C@H]1N[C@H]1CC[C@@H](NCC(=O)O)CC1 (racemic) [Compound 183, 2-(((cis)-4-(((trans)-2-((E)-1-phenylbut-1-en-2-yl)cyclopropyl)amino)cyclohexyl)amino)acetic Acid] | < 100 |  |  |
| C/C(=C\c1ccccc1)[C@@H]1C[C@H]1NC1CCN(CCO)CC1 (racemic) [Compound 201, 2-(4-(((trans)-2-((E)-1-phenylprop-1-en-2-yl)cyclopropyl)amino)piperidin-1-yl)ethan-1-ol Dihydrochloride] | < 100 |  |  |
| C/C(=C\c1ccccc1)[C@@H]1C[C@H]1NC1CCN(CC(N)=O)CC1 (racemic) [Compound 196, 2-(4-(((trans)-2-((E)-1-phenylprop-1-en-2-yl)cyclopropyl)amino)piperidin-1-yl)acetamide Dihydrochloride] | < 100 |  |  |
| C/C(=C\c1ccccc1)[C@@H]1C[C@H]1N[C@H]1CC[C@H](NCCC(N)=O)CC1 (single isomer, unassigned) [Compound 151, 3-(((trans)-4-(((trans)-2-((E)-1-phenylprop-1-en-2-yl)cyclopropyl)amino)cyclohexyl)amino)propanamide bis(trifluoroacetic acid) salt] | < 100 |  |  |
| CC/C(=C\c1ccccc1)[C@@H]1C[C@H]1N[C@H]1CC[C@H](N(C)CCC(=O)O)CC1 (racemic) [Compound 212, 3-(methyl((trans)-4-(((trans)-2-((E)-1-phenylbut-1-en-2-yl)cyclopropyl)amino)cyclohexyl)amino)propanoic Acid Dihydrochloride] | < 100 |  |  |
| COCC/C(=C\c1ccccc1)[C@@H]1C[C@H]1N[C@H]1CC[C@H](NCC(C)(C)C(=O)O)CC1 (racemic) [Compound 184, 3-(((trans)-4-(((trans)-2-((E)-4-methoxy-1-phenylbut-1-en-2-yl)cyclopropyl)amino)cyclohexyl)amino)-2,2-dimethylpropanoic Acid bis(trifluoroacetic Acid) Salt] | < 100 |  |  |
| COCCN[C@H]1CC[C@@H](N[C@@H]2C[C@H]2/C(C)=C/c2ccccc2)CC1 (single isomer, unassigned) [Compound 144, (cis)-N1-(2-methoxyethyl)-N4-((trans)-2-((E)-1-phenylprop-1-en-2-yl)cyclopropyl)cyclohexane-1,4-diamine bis(trifluoroacetic acid) salt] | < 100 |  |  |
| CC/C(=C\c1ccccc1)[C@@H]1C[C@H]1N[C@H]1CC[C@H](NCCO)CC1 (single isomer, unassigned) [Compound 159, 2-(((trans)-4-(((trans)-2-((E)-1-phenylbut-1-en-2-yl)cyclopropyl)amino)cyclohexyl)amino)ethan-1-ol bis(trifluoroacetic acid salt)] | < 100 |  |  |
| CC/C(=C\c1ccccc1)[C@@H]1C[C@H]1NC[C@H]1CC[C@H](NCC(C)(C)C(=O)O)CC1 (racemic) [Compound 232] |  | 100 to 1000 |  |
| CC/C(=C\c1ccccc1)[C@@H]1C[C@H]1N[C@H]1CC[C@H](N)CC1 (racemic) [Compound 169, (trans)-N^1-((trans)-2-((E)-1-phenylbut-1-en-2-yl)cyclopropyl)cyclohexane-1,4-diamine Dihydrochloride] | < 100 |  |  |
| CC/C(=C\c1ccccc1)[C@@H]1C[C@H]1NCc1cnn(C2CNC2)c1 (racemic) [Compound 242] |  | < 100 |  |
| CC/C(=C\c1ccccc1)[C@@H]1C[C@H]1N[C@H]1CC[C@H](NCC(C)(C)C#N)CC1 (single isomer, unassigned) [Compound 157, 2,2-dimethyl-3-(((trans)-4-(((trans)-2-((E)-1-phenylbut-1-en-2-yl)cyclopropyl)amino)cyclohexyl)amino)propanenitrile bis(trifluoroacetic acid salt)] | < 100 |  |  |
| F/C(=C\c1ccccc1)C1CC1NCC1CCNCC1 (racemic) [Compound 108, Racemic 2-((Z)-1-fluoro-2-phenylvinyl)-N-(piperidin-4-ylmethyl)cyclopropanamine Dihydrochloride] |  |  | IC50 (Table 5): 100 to 1000 nM |
| CC(C)/C(=C\c1ccccc1)[C@H]1C[C@@H]1N[C@H]1CC[C@H](N)CC1 (racemic) [Compound 178, (trans)-N^1-((trans)-2-(E)-3-methyl-1-phenylbut-1-en-2-yl)cyclopropyl)cyclohexane-1,4-diamine Dihydrochloride] | < 100 |  |  |
| C/C(=C\c1ccccc1)[C@@H]1C[C@H]1N[C@H]1CC[C@@H](NCCC(N)=O)CC1 (single isomer, unassigned) [Compound 152, 3-(((cis)-4-(((trans)-2-((E)-1-phenylprop-1-en-2-yl)cyclopropyl)amino)cyclohexyl)amino)propanamide bis(trifluoroacetic acid) salt] | < 100 |  |  |
| CCC1(NCC2CCNCC2)CC1/C(C)=C/c1ccccc1 (stereo not shown) [Compound 173, 1-ethyl-2-((E)-1-phenylprop-1-en-2-yl)-N-(piperidin-4-ylmethyl)cyclopropanamine Dihydrochloride] | < 100 |  |  |
| C/C(=C\c1ccccc1)[C@@H]1C[C@H]1NC1CCN(CCc2ccc(C(=O)O)cc2)CC1 (racemic) [Compound 206, 4-(2-(4-(((trans)-2-((E)-1-phenylprop-1-en-2-yl)cyclopropyl)amino)piperidin-1-yl)ethyl)benzoic Acid Dihydrochloride] | 100 to 1000 |  |  |
| CC/C(=C\c1ccccc1)[C@@H]1C[C@H]1NCC1(C)CNC1 (racemic) [Compound 243] |  | < 100 |  |
| C/C(=C\c1ccccc1)[C@@H]1C[C@H]1NC1CCN(Cc2ccc(C(=O)O)nc2)CC1 (racemic) [Compound 200, 5-((4-(((trans)-2-((E)-1-phenylprop-1-en-2-yl)cyclopropyl)amino)piperidin-1-yl)methyl)picolinic Acid Dihydrochloride] | < 100 |  |  |
| C/C(=C\c1ccccc1)[C@@H]1C[C@H]1N[C@H]1CC[C@H](NCC(C)(C)C(=O)O)CC1 (single isomer, unassigned) [Compound 148, 2,2-dimethyl-3-(((trans)-4-(((trans)-2-((E)-1-phenylprop-1-en-2-yl)cyclopropyl)amino)cyclohexyl)amino)propanoic acid bis(trifluoroacetic acid) salt] | < 100 |  |  |
| C/C(=C\c1ccccc1)[C@@H]1C[C@H]1NC1CCN(CC(=O)O)CC1 (racemic) [Compound 194, 2-(4-(((trans)-2-((E)-1-phenylprop-1-en-2-yl)cyclopropyl)amino)piperidin-1-yl)acetic Acid Dihydrochloride] | < 100 |  |  |

More lines, main results first:

| IC50 (Table 6) [nM] | IC50 (Table 7) [nM] | Structure (SMILES) | other results |
| --- | --- | --- | --- |
| < 100 |  | CNC(=O)c1ccc(CN2CCC(N[C@@H]3C[C@H]3/C(C)=C/c3ccccc3)CC2)cc1 (racemic) [Compound 136, N-methyl-4-((4-(((trans)-2-((E)-1-phenylprop-1-en-2-yl)cyclopropyl)amino)piperidin-1-yl)methyl)benzamide dihydrochloride] |  |
|  | < 100 | CC/C(=C\c1ccccc1)[C@@H]1C[C@H]1NC1CC2(C1)CN(Cc1ccc(-c3nnn[nH]3)cc1)C2 (single isomer, unassigned) [Compound 252] |  |
|  | < 100 | CC/C(=C\c1ccccc1)[C@@H]1C[C@H]1NC1CC2(C1)CN(Cc1ccc(C(=O)O)c(C)c1)C2 (single isomer, unassigned) [Compound 255] |  |
| < 100 |  | C/C(=C\c1ccccc1)[C@@H]1C[C@H]1NC1CCN(Cc2ccc(C(N)=O)cc2)CC1 (racemic) [Compound 137, 4-((4-(((trans)-2-((E)-1-phenylprop-1-en-2-yl)cyclopropyl)amino)piperidin-1-yl)methyl)benzamide dihydrochloride] |  |
|  | < 100 | CC/C(=C\c1ccccc1)[C@@H]1C[C@H]1NC1CC2(C1)CN(Cc1ccc(C(=O)O)nc1)C2 (racemic) [Compound 231] |  |
|  | < 100 | CC/C(=C\c1ccccc1)[C@@H]1C[C@H]1NC[C@H]1C[C@H](NCc2ccc(C(=O)O)cc2)C1 (racemic) [Compound 236] |  |
|  | < 100 | CC/C(=C\c1ccccc1)[C@@H]1C[C@H]1N[C@H]1CC[C@H](NCc2ccc(C(=O)O)nc2)CC1 (single isomer, unassigned) [Compound 260, 5-((((trans)-4-(((1R,2S or 1S,2R)-2-((E)-1-phenylbut-1-en-2-yl)cyclopropyl)amino)cyclohexyl)amino)methyl)picolinic acid bis trifluoroacetate] |  |
| 100 to 1000 |  | CC/C(=C\c1ccccc1)[C@@H]1C[C@H]1NCC1CCN(Cc2ccc(C(=O)OC(C)(C)C)cc2)CC1 (racemic) [Compound 127] |  |
|  | < 100 | CC/C(=C\c1ccccc1)[C@@H]1C[C@H]1NC1CC2(CCN(CC(C)(C)C(=O)O)CC2)C1 (racemic) [Compound 228, 2,2-dimethyl-3-(2-(((trans)-2-(E)-1-phenylbut-1-en-2-yl)cyclopropyl)amino)-7-azaspiro[3.5]nonan-7-yl)propanoic Acid Bis Trifluoroacetate] |  |
|  | < 100 | CC/C(=C\c1ccccc1)[C@@H]1C[C@H]1NC1CC2(C1)CN(CCC(=O)O)C2 (single isomer, unassigned) [Compound 266, 3-(6-(((1R,2S or 1S,2R)-2-((E)-1-phenylbut-1-en-2-yl)cyclopropyl)amino)-2-azaspiro[3.3]heptan-2-yl)propanoic Acid (Single Stereoisomer)] |  |
